Data: patent publication US9717715B2, “Method of combination therapy using an anti-C-Met antibody” (Samsung Electronics Co., Ltd., priority 2013, dated 2017)

What was measured:
[1] = system: human gastric cancer MKN45 cells; assay: MKN45 orthotopic xenograft (metastasis); format: in vivo, mouse; details: 5-FU group, dose not given
Description: For the MKN45 orthotopic xenograft experiment, human gastric cancer MKN45 cells (Japanese Cancer Research Bank, JCRB, Tokyo, Japan) were inoculated into donor BALB/C nude mice. When the tumor size reached the size of 600-800 mm3, the donor mice were euthanized, and the tumor was excised through sterile surgical procedure. The tumors were cut into fragments the size of 1×1×1 mm and implanted into the wall of great gastric curvature of recipient mice through sterile surgery under isoflurane anesthesia. 7 days after the surgery, recipient mice with orthotopic tumors were randomized into groups according to body weight and dosing was commenced. huAbF46-H4-A1 (IgG2 Fc) was injected into a vein once a week for 9 weeks. At the end of the in vivo study, orthotopic tumor weight was recorded and metastasis to the other organ was checked by macroscopic examination.

[2] = system: breast cancer cell line BT-474; assay: Combination cell viability CTG assay, BT-474; format: cell-based; details: BT-474, 72 hours
Procedure: (§1) Cell proliferation in response to antibody treatment in vitro was assessed by a CTG (Promega) assay according to manufacturer's instructions. EBC1, HT-29, BT-474, HCC1806, HCC1954 and MKN45 cells were respectively plated at a density of 5×10^3 cells per well in FBS 10% (v/v) RPMI 1640 medium (Gibco) onto a 96-well plate (BD). The HT-29 (HTB-38), BT-474 (HTB-20), HCC1806 (CRL-2335) and HCC1954 (CRL-2338) cell lines were all purchased from ATCC. MKN45 (JCRB0254) and EBC1 (JCRB0820) cell lines were purchased from the Health Science Research Resource Bank. After 24 hours incubation, the c-Met targeting antibody huAbF46-H4-A1 (IgG2 Fc) was added alone or in combination with another drug (lapatinib, regorafenib or vemurafenib) diluted in 10% FBS (v/v) RPMI medium. Lapatinib, regorafenib and vemurafenib were purchased from Selleck Chemicals.
For the combination treatment of each experiment, IC20 concentration of one drug (drug A) and differing amounts of the other drug (drug B) were treated to see if the efficacy of drug B is improved by combi-treatment with drug A in a dose-dependent manner (see FIGS. 16-22). After 72 hours incubation, 100 μL of the CTG reagent (Promega) was added to each well followed by incubation at 37° C. for 30 minutes. The luminescence was measured using an Envision Multilabel Plate Reader (Perkin Elmer).

[3] = system: breast cancer cell line HCC1806; assay: Combination cell viability CTG assay, HCC1806; format: cell-based; details: HCC1806, 72 hours, FIG. 17
Procedure: as §1
(§2) After 72 hours incubation, 100 μL of the CTG reagent (Promega) was added to each well followed by incubation at 37° C. for 30 minutes. The luminescence was measured using an Envision Multilabel Plate Reader (Perkin Elmer).

[4] = system: breast cancer cell line HCC1954; assay: Combination cell viability CTG assay, HCC1954; format: cell-based; details: HCC1954, 72 hours, FIG. 18
Procedure: as §1, §2

[5] = system: colorectal cancer cell line HT29; assay: Combination cell viability CTG assay, HT29; format: cell-based; details: HT29, 72 hours, FIG. 19
Procedure: as §1, §2

[6] = system: MHCC97H (human liver cancer cell line); assay: MHCC97H xenograft model; format: in vivo, mouse; details: 30 mg/kg p.o. q.d. x 4 weeks
Procedure: The antitumor activity of huAbF46-H4-A1 (IgG2 Fc) was evaluated in a BALB/C nude mouse MHCC97H (human liver cancer cell line) xenograft model (referring to Example 16.2). Approximately 3 million MHCC97H cells in 100 μL of serum-free media were injected via s.c. to each of the 140 mice under anesthesia by 1-2% isoflurane. Ten days after subcutaneous inoculation with MHCC97H tumor cells, dosing commenced in the following treatment groups: 0 (PBS vehicle), 0.2, 1, 5 or 10 mg/kg huAbF46-H4-A1 (IgG2 Fc) i.v., q.w.×4 weeks; 30 mg/kg sorafenib p.o., q.d.×4 weeks (positive control). Each group consisted of 15 mice. Tumor volumes and body weights were measured two to three times a week for total study period about 4 weeks. The tumor volume (V) was calculated as follows: V (mm^3)={long axis length (mm)×(short axis length (mm))^2}/2.

O=c1[nH]cc(F)c(=O)[nH]1 [Antibody 5-FU, 5-FU, reference compound]
Number of metastasis lesion [1]: 0

CS(=O)(=O)CCNCc1ccc(-c2ccc3ncnc(Nc4ccc(OCc5cccc(F)c5)c(Cl)c4)c3c2)o1 [lapatinib]
anti-tumor efficacy (cell viability) when co-treated with huAbF46-H4-A1 (IgG2 Fc) ([2]; FIG. 16): significantly improved | anti-tumor efficacy (cell viability) when co-treated with huAbF46-H4-A1 (IgG2 Fc) [3]: significantly improved | anti-tumor efficacy (cell viability) when co-treated with huAbF46-H4-A1 (IgG2 Fc) [4]: significantly improved | anti-tumor efficacy (cell viability) when co-treated with huAbF46-H4-A1 (IgG2 Fc) [5]: significantly improved

CNC(=O)c1cc(Oc2ccc(NC(=O)Nc3ccc(Cl)c(C(F)(F)F)c3)c(F)c2)ccn1 [regorafenib]
anti-tumor efficacy (cell viability) when co-treated with huAbF46-H4-A1 (IgG2 Fc) ([2]; FIG. 20): significantly improved

CNC(=O)c1cc(Oc2ccc(NC(=O)Nc3ccc(Cl)c(C(F)(F)F)c3)cc2)ccn1 [sorafenib, reference compound]
tumor growth [6]: significant inhibition of MHCC97H tumor growth
